# Data reported in patent US7083798B1, “Method of immunomodulatory treatment of insulin dependent diabetes mellitus using mycobacterial cell wall compositions” (Centenary Institute of Cancer Medicine and Cell Biology, priority 1996, dated 2006).
# Tested on: mice
# Assay: Maximum dose tolerated by mice
# Experimental: GMDP (10, 5.0, 2.5 and 1.0 μg), ManLAM (50, 25, 12.5 and 6.25 μg), and MAPG (1.0, 0.5, 0.25 and 0.125 mg) were each suspended in saline and injected intravenously into eight week old female NOD mice. […] Groups of 5 mice were tested and the incidence of diabetes compared to 17 saline treated and 14 BCG treated control mice.
compound,measurement,value
"CC(=O)N[C@H]1[C@H](O[C@H]2[C@H](O[C@H](C)C(=O)N[C@@H](C)C(=O)N[C@H](CCC(=O)O)C(N)=O)[C@@H](NC(C)=O)C(O)O[C@@H]2CO)O[C@H](CO)[C@@H](O)[C@@H]1O (stereo partly drawn) [GMDP, N-acetylglucosaminyl-N-acetylmuramyl-L-alanyl-D-isoglutamine]",maximum dose tolerated by mice,10 µL·g
